Laboratory results published in patent US6103720A, “Ketobenzamides as calpain inhibitors” (BASF Aktiengesellschaft, priority 1996, dated 2000).

Legend:
Human μ-calpain = target: T1, Human μ-calpain (Homo sapiens, UniProt P07384); test: Calpain I test (Ki, fluorogenic substrate Suc-Leu-Tyr-AMC); assay type: biochemical; details: human μ-calpain from erythrocytes, reversible inhibition
T1 construct: Human μ-calpain is isolated from erythrocytes; from tissue; host or cells: human erythrocytes (purified on DEAE Sepharose, phenyl Sepharose, Superdex 200 and Blue Sepharose)
T1 sequence (P07384 1-714): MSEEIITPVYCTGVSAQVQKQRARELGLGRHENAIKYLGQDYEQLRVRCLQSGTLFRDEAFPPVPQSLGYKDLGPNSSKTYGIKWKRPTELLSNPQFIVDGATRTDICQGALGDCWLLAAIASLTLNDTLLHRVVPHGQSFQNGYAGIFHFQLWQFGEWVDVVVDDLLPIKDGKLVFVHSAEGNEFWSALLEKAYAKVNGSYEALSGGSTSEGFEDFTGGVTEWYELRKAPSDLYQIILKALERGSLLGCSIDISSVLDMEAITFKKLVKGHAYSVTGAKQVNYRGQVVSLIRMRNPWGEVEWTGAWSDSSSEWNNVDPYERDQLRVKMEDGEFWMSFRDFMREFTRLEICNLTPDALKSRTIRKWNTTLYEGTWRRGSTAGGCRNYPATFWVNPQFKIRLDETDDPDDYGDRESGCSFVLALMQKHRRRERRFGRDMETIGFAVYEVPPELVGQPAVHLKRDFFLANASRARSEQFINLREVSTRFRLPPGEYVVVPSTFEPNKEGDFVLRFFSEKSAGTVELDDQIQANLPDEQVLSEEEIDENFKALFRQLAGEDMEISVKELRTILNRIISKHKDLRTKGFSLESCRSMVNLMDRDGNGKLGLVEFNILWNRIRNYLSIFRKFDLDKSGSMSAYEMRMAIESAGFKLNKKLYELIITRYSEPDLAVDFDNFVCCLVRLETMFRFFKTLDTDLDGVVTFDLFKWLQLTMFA
T1 sequence (P04632 1-268 partner): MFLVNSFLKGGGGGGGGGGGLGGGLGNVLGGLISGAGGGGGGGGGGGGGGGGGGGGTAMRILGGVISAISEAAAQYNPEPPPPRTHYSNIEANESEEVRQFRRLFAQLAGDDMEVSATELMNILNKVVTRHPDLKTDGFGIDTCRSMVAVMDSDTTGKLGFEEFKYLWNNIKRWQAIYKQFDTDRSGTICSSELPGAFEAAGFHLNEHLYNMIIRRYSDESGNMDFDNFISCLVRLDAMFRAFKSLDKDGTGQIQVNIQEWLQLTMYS
Experimental: Calpain I and Calpain II Test
The inhibitory properties of calpain inhibitors are tested in buffer containing 50 mM tris-HCl, pH 7.5; 0.1 M NaCl; 1 mM dithiotreithol [sic]: 0.11 mM CaCl2, using the fluorogenic calpain substrate Suc-Leu-Tyr-AMC (25 mM, dissolved in DMSO, Bachem/Switzerland) (Sasaki et al. J. Biol. Chem. 1984, Vol. 259, 12489-12494). Human μ-calpain is isolated from erythrocytes following the methods of Croall and DeMartino (BBA 1984, Vol. 788, 348-355) and Graybill et al. (Bioorg. & Med. Lett. 1995, Vol. 5, 387-392). After several chromatographic steps (DEAE Sepharose, phenyl Sepharose, Superdex 200 and Blue Sepharose), the enzyme is obtained at a purity of […], as assessed by SDS-PAGE, Western blot analysis and N-terminal sequencing. The fluorescence of the cleavage product 7-amino-4-methylcoumarin (AMC) is followed in a Spex-Fluorolog fluorimeter at λex =380 nm and λem =460 nm. […]
In a typical experimental mixture, 10 μl of substrate (250 μm final concentration) and then 10 μl of μ-calpain (2 μg/ml final concentration, ie. 18 nM) are added to a 1 ml cuvette which contains buffer. The calpain-mediated cleavage of the substrate is measured for from 15 to 20 min. […] Ki values are determined using the customary equation for reversible inhibition, ie. […]

calpain = details: M. R. Angelastro et al., J. Med. Chem. 1990,33, 11-13; cited from earlier work

Row | Ki (Human μ-calpain) [µM] | Compound | inhibitor of calpain (in words) (calpain)
1 | < 10 | (S)-N-(1-Ethoxycarbonyl-1-oxo-3-phenylpropan-2-yl)-2-phenylbenzamide [Example 24] | –
2 | – | COC(=O)C(=O)C(Cc1ccccc1)NC(=O)c1ccccc1 (centres unmarked) [Ph-CONH--CH(CH2 Ph)--CO--COOCH3] | weak inhibitor
